Measured values published in patent US12157741B2, “Macrocyclic inhibitors of DYRK1A” (DANA-FARBER CANCER INSTITUTE, INC., priority 2018, dated 2024).
Like-named read-outs stand apart in the source and are kept apart here.

Columns and labels:
Type in all cases: binding
various enzymes [1] = target: various enzymes (Homo sapiens, UniProt O15530); conditions: compound 1 uM
Experimental: (§1) Ambit profiling was conducted in accordance with the manufacturer's instructions.

various enzymes [2] = target: various enzymes (Homo sapiens, UniProt P15056, V600E)
Experimental: as §1

various enzymes [3] = target: various enzymes (Homo sapiens, UniProt Q9UM73); conditions: compound 1 uM
Experimental: as §1

various enzymes [4] = target: various enzymes (Plasmodium falciparum, UniProt P61075)
Experimental: as §1

various enzymes [5] = target: various enzymes (Homo sapiens, UniProt Q16832); conditions: compound 1 uM
Experimental: as §1

various enzymes [6] = target: various enzymes (Homo sapiens, UniProt P53779); conditions: compound 1 uM
Experimental: as §1

various enzymes [7] = target: T1, various enzymes (Homo sapiens, UniProt P36888); conditions: compound 1 uM
T1 sequence (P36888 27-993): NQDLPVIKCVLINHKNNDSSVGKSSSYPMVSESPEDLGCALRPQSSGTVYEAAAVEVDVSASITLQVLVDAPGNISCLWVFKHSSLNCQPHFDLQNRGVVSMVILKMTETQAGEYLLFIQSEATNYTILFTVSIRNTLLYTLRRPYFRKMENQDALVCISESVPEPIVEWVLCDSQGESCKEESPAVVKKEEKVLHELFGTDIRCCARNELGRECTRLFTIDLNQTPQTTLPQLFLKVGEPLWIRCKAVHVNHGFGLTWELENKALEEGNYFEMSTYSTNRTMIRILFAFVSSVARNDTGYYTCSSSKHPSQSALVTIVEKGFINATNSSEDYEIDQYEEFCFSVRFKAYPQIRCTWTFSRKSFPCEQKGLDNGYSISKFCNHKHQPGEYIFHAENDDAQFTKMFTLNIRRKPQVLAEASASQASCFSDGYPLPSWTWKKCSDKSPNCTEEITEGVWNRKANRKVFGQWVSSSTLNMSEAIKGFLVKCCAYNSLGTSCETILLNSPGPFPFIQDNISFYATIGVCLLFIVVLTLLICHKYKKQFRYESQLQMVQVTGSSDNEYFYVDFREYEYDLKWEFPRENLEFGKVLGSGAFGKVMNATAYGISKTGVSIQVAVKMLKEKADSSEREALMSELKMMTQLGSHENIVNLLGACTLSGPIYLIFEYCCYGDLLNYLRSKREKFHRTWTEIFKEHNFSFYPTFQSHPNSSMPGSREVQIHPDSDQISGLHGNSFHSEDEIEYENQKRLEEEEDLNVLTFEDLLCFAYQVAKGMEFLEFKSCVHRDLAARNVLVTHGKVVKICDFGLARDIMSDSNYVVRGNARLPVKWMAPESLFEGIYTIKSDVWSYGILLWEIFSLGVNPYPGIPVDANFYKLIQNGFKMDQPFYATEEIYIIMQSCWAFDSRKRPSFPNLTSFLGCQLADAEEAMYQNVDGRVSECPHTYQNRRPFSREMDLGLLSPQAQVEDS
Experimental: as §1

various enzymes [8] = target: T2, various enzymes (Homo sapiens, UniProt Q13873); conditions: compound 1 uM
T2 sequence (Q13873 27-1038): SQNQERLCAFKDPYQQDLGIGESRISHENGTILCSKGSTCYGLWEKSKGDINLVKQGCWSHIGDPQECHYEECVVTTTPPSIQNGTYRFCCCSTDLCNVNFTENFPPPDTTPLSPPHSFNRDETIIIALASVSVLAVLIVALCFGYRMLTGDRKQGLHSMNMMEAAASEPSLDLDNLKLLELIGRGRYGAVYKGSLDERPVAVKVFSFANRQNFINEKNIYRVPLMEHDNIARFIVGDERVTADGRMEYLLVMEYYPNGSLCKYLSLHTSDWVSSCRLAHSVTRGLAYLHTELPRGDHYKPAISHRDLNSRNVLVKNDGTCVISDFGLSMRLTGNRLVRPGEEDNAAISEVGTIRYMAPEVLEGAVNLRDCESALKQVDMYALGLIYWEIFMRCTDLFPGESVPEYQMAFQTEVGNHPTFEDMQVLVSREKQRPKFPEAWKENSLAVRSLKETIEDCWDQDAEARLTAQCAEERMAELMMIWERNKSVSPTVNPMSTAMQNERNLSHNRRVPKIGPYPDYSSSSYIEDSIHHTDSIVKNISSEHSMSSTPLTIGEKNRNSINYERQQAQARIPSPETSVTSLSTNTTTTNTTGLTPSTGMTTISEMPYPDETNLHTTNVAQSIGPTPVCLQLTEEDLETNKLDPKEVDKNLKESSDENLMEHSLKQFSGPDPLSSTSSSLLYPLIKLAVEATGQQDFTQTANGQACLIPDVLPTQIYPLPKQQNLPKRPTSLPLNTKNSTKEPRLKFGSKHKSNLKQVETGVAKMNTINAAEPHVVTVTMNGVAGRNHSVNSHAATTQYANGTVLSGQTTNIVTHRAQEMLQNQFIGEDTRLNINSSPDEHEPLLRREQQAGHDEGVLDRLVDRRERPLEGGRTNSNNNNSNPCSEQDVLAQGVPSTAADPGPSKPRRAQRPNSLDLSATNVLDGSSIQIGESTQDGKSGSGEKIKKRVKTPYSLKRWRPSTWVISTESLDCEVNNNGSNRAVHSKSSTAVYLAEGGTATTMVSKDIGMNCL
Experimental: as §1

various enzymes [9] = target: various enzymes (Homo sapiens, UniProt Q96SB4); conditions: compound 1 uM
various enzymes (Homo sapiens, UniProt Q96SB4), sequence (Q96SB4 whole entry): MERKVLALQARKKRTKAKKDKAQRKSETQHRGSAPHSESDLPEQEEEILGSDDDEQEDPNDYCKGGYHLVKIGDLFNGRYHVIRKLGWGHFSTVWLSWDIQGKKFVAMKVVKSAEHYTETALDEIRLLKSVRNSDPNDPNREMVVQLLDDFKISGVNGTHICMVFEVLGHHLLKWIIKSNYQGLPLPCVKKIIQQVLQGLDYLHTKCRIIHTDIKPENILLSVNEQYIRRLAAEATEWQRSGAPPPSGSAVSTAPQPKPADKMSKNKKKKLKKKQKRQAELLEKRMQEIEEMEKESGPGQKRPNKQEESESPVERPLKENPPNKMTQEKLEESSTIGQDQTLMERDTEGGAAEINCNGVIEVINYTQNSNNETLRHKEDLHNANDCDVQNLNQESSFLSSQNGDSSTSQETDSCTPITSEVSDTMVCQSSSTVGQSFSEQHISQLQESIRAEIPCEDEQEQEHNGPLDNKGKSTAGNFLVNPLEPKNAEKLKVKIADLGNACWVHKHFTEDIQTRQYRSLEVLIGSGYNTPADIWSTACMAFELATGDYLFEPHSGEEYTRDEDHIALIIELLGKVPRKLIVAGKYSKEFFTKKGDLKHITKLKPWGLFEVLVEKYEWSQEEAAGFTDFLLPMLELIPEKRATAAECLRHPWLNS
Experimental: as §1

various enzymes [10] = target: various enzymes (Homo sapiens, UniProt Q8IU85); conditions: compound 1 uM
Experimental: as §1

various enzymes [11] = target: various enzymes (Homo sapiens, UniProt Q9UIK4); conditions: compound 1 uM
various enzymes (Homo sapiens, UniProt Q9UIK4), sequence (Q9UIK4 whole entry): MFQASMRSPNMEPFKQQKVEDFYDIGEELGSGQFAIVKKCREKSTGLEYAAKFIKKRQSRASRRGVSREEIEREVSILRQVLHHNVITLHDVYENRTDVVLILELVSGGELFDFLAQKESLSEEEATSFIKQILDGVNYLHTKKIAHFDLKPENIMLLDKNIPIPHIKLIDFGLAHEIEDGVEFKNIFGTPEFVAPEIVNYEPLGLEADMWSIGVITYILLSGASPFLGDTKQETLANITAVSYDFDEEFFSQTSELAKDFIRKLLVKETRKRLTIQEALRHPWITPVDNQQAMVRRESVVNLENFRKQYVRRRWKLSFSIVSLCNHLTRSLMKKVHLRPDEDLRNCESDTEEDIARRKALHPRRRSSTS
Experimental: as §1

various enzymes [12] = target: various enzymes (Homo sapiens, UniProt P42345); conditions: compound 1 uM
Experimental: as §1

various enzymes [13] = target: various enzymes (Homo sapiens, UniProt Q9HCP0); conditions: compound 1 uM
various enzymes (Homo sapiens, UniProt Q9HCP0), sequence (Q9HCP0 whole entry): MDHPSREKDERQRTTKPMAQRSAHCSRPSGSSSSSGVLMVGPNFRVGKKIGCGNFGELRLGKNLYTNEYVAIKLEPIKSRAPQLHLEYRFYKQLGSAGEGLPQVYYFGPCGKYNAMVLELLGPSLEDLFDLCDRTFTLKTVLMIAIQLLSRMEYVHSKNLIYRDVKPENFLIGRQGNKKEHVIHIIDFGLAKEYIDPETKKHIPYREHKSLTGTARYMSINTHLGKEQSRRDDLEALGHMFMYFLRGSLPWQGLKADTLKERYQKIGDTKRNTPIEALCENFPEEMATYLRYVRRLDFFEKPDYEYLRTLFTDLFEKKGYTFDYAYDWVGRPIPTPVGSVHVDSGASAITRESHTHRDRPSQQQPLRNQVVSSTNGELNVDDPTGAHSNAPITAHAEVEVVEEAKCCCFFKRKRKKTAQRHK
Experimental: as §1

various enzymes [14] = target: various enzymes (Homo sapiens, UniProt O75747); conditions: compound 1 uM
Experimental: as §1

various enzymes [15] = target: various enzymes (Homo sapiens, UniProt O14976); conditions: compound 1 uM
various enzymes (Homo sapiens, UniProt O14976), sequence (O14976 whole entry): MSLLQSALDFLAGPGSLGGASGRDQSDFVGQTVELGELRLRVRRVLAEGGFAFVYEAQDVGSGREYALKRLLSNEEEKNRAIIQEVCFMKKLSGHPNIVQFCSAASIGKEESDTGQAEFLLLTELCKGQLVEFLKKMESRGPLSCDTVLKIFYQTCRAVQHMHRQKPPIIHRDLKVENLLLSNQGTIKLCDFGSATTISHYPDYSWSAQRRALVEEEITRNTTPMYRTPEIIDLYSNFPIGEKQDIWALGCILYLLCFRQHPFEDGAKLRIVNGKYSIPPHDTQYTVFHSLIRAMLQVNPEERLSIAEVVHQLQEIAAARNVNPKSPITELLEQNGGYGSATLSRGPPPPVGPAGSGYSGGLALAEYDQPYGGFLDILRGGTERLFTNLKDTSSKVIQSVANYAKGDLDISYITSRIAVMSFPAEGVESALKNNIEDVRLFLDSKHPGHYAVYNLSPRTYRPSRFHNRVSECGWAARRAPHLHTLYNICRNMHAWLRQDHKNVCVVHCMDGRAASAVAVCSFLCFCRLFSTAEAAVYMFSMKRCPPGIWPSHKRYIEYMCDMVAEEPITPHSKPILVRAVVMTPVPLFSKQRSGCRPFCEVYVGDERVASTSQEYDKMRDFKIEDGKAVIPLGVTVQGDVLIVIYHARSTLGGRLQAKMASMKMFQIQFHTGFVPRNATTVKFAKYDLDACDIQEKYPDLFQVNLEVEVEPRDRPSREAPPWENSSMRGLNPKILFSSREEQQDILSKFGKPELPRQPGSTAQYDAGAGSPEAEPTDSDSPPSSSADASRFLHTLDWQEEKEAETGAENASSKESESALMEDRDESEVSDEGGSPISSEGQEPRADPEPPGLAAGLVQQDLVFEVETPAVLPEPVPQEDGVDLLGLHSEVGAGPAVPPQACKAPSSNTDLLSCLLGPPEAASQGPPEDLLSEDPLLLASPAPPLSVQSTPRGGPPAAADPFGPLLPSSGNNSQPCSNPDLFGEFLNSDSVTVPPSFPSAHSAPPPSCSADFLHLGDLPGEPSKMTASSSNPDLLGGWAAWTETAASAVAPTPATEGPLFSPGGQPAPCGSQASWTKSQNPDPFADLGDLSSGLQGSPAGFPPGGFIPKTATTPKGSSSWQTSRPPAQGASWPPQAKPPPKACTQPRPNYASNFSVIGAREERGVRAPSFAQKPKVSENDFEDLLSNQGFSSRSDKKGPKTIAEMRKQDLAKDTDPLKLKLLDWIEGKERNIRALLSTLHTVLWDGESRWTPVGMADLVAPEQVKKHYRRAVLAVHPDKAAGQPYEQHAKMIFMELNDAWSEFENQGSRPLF
Experimental: as §1

various enzymes [16] = target: various enzymes (Homo sapiens, UniProt Q86UX6); conditions: compound 1 uM
Experimental: as §1

various enzymes [17] = target: various enzymes (Homo sapiens, UniProt Q9Y2H9); conditions: compound 1 uM
various enzymes (Homo sapiens, UniProt Q9Y2H9), sequence (Q9Y2H9 whole entry): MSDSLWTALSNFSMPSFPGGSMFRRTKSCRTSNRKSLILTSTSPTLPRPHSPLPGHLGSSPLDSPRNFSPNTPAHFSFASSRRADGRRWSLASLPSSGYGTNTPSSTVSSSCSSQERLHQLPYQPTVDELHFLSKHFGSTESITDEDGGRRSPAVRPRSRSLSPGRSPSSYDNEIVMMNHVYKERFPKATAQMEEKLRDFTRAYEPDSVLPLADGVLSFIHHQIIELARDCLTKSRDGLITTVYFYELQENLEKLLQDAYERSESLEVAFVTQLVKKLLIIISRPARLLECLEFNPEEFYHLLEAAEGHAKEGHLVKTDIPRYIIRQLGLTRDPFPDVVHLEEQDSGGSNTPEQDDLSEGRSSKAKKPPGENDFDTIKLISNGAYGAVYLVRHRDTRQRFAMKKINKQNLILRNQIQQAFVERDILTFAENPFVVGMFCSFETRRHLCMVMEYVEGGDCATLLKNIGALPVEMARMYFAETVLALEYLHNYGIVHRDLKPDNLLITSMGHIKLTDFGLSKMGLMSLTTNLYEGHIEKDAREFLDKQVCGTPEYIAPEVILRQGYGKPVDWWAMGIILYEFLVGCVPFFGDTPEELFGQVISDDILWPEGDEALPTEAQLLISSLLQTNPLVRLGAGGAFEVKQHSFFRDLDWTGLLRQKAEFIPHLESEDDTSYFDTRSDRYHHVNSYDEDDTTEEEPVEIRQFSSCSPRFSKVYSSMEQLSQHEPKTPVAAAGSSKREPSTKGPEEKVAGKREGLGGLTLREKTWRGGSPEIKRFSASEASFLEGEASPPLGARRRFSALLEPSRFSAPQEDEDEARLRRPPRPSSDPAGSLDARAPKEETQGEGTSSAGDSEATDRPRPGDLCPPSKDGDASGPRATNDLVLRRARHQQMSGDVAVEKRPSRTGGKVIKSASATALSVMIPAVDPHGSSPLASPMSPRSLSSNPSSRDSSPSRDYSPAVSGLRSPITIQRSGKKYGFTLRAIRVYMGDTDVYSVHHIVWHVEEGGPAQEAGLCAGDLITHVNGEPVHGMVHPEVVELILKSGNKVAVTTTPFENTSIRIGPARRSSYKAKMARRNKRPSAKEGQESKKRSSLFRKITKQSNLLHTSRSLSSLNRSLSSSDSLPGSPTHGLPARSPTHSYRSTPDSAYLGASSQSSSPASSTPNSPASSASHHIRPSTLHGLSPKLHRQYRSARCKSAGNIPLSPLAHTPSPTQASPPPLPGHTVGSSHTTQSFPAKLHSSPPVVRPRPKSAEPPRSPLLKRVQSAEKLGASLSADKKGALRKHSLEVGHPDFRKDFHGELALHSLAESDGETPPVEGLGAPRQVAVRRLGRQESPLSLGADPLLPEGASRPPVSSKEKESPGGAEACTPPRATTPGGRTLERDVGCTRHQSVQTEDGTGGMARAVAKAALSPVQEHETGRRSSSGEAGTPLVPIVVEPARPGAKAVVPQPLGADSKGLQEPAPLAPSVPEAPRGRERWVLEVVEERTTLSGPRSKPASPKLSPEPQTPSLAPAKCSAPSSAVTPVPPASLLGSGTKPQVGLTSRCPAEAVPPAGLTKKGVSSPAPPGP
Experimental: as §1

various enzymes [18] = target: various enzymes (Homo sapiens, UniProt P51617); conditions: compound 1 uM
Experimental: as §1

various enzymes (Homo sapiens, UniProt O15530), sequence (O15530 whole entry): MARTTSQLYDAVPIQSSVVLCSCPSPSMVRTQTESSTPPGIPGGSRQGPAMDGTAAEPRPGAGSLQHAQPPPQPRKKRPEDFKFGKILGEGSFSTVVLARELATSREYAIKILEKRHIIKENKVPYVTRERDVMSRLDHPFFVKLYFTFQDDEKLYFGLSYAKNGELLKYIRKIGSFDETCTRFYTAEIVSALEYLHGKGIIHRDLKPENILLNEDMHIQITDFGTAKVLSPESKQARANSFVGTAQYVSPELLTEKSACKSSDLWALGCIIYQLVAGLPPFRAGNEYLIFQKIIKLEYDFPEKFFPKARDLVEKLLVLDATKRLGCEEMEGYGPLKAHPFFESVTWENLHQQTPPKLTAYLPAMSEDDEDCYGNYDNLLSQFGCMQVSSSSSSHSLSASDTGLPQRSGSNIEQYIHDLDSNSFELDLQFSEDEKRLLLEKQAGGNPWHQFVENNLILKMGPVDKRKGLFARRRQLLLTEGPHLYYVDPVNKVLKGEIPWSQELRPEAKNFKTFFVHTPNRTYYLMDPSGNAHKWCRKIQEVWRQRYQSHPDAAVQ

Row | Compound | Ambit profiling: PDPK1 (various enzymes [1]) | Ambit profiling: ALK (various enzymes [3]) | Ambit profiling: DDR2 (various enzymes [5]) | Ambit profiling: JNK3 (various enzymes [6]) | Ambit profiling: FLT3 (various enzymes [7]) | Ambit profiling: FLT3-autoinhibited (various enzymes [7]) | Ambit profiling: BMPR2 (various enzymes [8]) | Ambit profiling: SRPK1 (various enzymes [9]) | Ambit profiling: CAMK1D (various enzymes [10]) | Ambit profiling: DAPK2 (various enzymes [11]) | Ambit profiling: MTOR (various enzymes [12]) | Ambit profiling: CSNK1G1 (various enzymes [13]) | Ambit profiling: PIK3C2G (various enzymes [14]) | Ambit profiling: GAK (various enzymes [15]) | Ambit profiling: YANK3 (various enzymes [16]) | Ambit profiling: MAST1 (various enzymes [17]) | Ambit profiling: IRAK1 (various enzymes [18]) | also measured
1 | COc1c2c(nn1C)CN(C(C)C)C(=O)CCCn1cc(c(C(F)(F)F)n1)-c1c[nH]c3ncc-2cc13 [Compound 50, (Z)-5-isopropyl-35-methoxy-31-methyl-13-(trifluoromethyl)-11H,21H,31H-5-aza-2(3,5)-pyrrolo[2,3-b]pyridina-1(4,1),3(4,3)-dipyrazolacyclononaphan-6-one] | 100 | 21 | 32 | 8.8 | 1.1 | 6.4 | 89 | 30 | 38 | 67 | 98 | 81 | 58 | 4 | 74 | 40 | 2.1 | Ambit profiling: BRAF(V600E) (various enzymes [2]): 93; Ambit profiling: PFPK5(P. falciparum) (various enzymes [4]): 79
2 | CC(C)N1Cc2nn(C)cc2-c2cnc3[nH]cc(c3c2)-c2cn(nc2C(F)(F)F)CCCC1=O [Compound 45, (Z)-5-isopropyl-31-methyl-13-(trifluoromethyl)-11H,21H,31H-5-aza-2(3,5)-pyrrolo[2,3-b]pyridina-1(4,1),3(4,3)-dipyrazolacyclononaphan-6-one] | 98 | 18 | 13 | 29 | 0 | 21 | 78 | 4.5 | 60 | 100 | 69 | 100 | 97 | 5.7 | 100 | 22 | 1.4 | Ambit profiling: BRAF(V600E) (various enzymes [2]; compound 1 uM): 100; Ambit profiling: PFPK5(P. falciparum) (various enzymes [4]; compound 1 uM): 82
